Data published in publication PMC6127322, “Novel Imidazole and Methoxybenzylamine Growth Inhibitors Affecting Salmonella Cell Envelope Integrity and its Persistence in Chickens” (Scientific Reports, 2018).
≈ marks a conversion by molar mass, not a printed value.

Tests used:
[1] = tested on: S. Typhimurium cell surface; experiment: Scanning electron microscopy (SEM); assay type: cell-based, Salmonella enterica subsp. enterica serovar Typhimurium; conditions: 5X MBC for 3 hrs, compared to DMSO control
Procedure: Processing of the samples for SEM was performed with the same samples as above and as previously described. Briefly, one volume of bacterial suspension was mixed with one volume of fixative (3% glutaraldehyde, 1% paraformaldehyde in 0.1 M potassium phosphate buffer pH 7.2), and incubated for 2 hrs at 4 °C. Fixed cells were centrifuged for 5 min at 1,200 g, washed twice with 1X PBS, and resuspended into 1% osmium tetroxide for 1 hr at room temperature in the dark, followed by serial dehydration of the sample in ethanol and platinum splatter-coating. Visualization and imaging of the samples was performed using a Hitachi S-4700 scanning electron microscope.

[2] = tested on: S. Typhimurium cell membrane; experiment: Confocal microscopy, FM4-64 and SYTO9 staining; assay type: cell-based, Salmonella enterica subsp. enterica serovar Typhimurium; conditions: 5X MBC for 3 hrs, compared to DMSO control
Procedure: An overnight suspension of S. […] The effect of the SMs on S. Typhimurium was assessed using confocal microscopy as previously described. Cells were stained for 45 min using FM4–64 (2 µg/ml; […] Invitrogen). Three microliters of stained bacteria were transferred onto agarose (1.2%) -coated glass slides. Microscopy was performed using a Leica TCS SP6 confocal scanning microscope with FM4–64 (515 nm/640 nm) and SYTO-9 (485 nm/498 nm) filters.

[3] = tested on: Salmonella Saint-Paul; experiment: Dose-response assay (MBC) on Salmonella serovars; assay type: cell-based, Salmonella enterica; conditions: serovar Saint-Paul, M9 broth
[4] = tested on: S. Typhimurium membrane permeability; experiment: Crystal violet uptake assay; assay type: cell-based, Salmonella enterica subsp. enterica serotype Typhimurium; conditions: 1 hr, lethal dose (5X MBC); for Reduction of crystal violet uptake: compared to 1% DMSO control
Procedure: Figure S2. Estimation of the membrane permeability of Salmonella enterica subsp. enterica serotype Typhimurium strain JSG626 after small molecule (SM) treatment. (A) Crystal […]
Treatments were normalized based on 10 μg/ml of crystal violet solution (no uptake […]
different than the 1% DMSO control (P<0.01); n= 9. (B) Loss of 260 nm absorbing materials from S. Typhimurium cell content. 260 nm absorbing materials were measured […]
standard deviation; *: the amount of 260 nm absorbing material in supernatant was […]
Both experiments were performed as previously described (1).
(also on this page, place not known: updtae (%) (ng/µl) Crystal violet 260 nm absorbing material) […]

[5] = tested on: S. Typhimurium in HD11 cells; experiment: S. Typhimurium survival in infected cell lines; assay type: cell-based, Salmonella enterica subsp. enterica serotype Typhimurium; conditions: Salmonella enterica, internalized S. Typhimurium, 24 hrs; for IC50: estimated
Procedure: (§1) The ability of four SMs to clear S. Typhimurium was evaluated using three cell lines (Caco-2 cells, HD11, and THP-1 cells) as previously described. A multiplicity of infection (MOI) of 10 was used. Infected cells were treated with 1 µl of SMs (final concentration ranged between 100 µM and 6.25 µM) and incubated at 37 °C for 24 hrs in humidified, 5% CO2 incubator. Following incubation, cells were washed once with 1X PBS, lysed with 0.1% Triton-100X, serial ten-fold diluted in 1X PBS, and plated on agar plate. Plates were incubated at 37 °C for 24 hrs to determine the intracellular bacteria. Cells not infected and not treated, and cells infected and treated with 2% DMSO were used as controls.

[6] = tested on: S. Typhimurium in Caco-2 cells; experiment: S. Typhimurium survival in infected cell lines; assay type: cell-based, Salmonella enterica subsp. enterica serotype Typhimurium; conditions: Salmonella enterica, internalized S. Typhimurium, 24 hrs; for IC50: estimated
Procedure: as §1

[7] = tested on: S. Typhimurium in THP-1 cells; experiment: S. Typhimurium survival in infected cell lines; assay type: cell-based, Salmonella enterica subsp. enterica serotype Typhimurium; conditions: Salmonella enterica, internalized S. Typhimurium, 24 hrs; for IC50: estimated
Procedure: as §1

[8] = tested on: chicken cecal microbiota; experiment: Cecal microbiota, 16S rRNA sequencing; assay type: in vivo; conditions: compared to the DMSO group, P < 0.01
[9] = tested on: Salmonella Newport; experiment: Dose-response assay (MBC) on Salmonella serovars; assay type: cell-based; conditions: Salmonella enterica; serovar Newport, M9 broth
[10] = tested on: Campylobacter jejuni 81–176; experiment: Activity spectrum on foodborne pathogens; assay type: cell-based; conditions: 200 µM
[11] = tested on: Salmonella Braenderup; experiment: Dose-response assay (MBC) on Salmonella serovars; assay type: cell-based; conditions: Salmonella enterica; serovar Braenderup, M9 broth
[12] = tested on: Salmonella Albany; experiment: Dose-response assay (MBC) on Salmonella serovars; assay type: cell-based; conditions: Salmonella enterica; serovar Albany, M9 broth
[13] = tested on: avian Mycoplasma gallisepticum; experiment: Activity spectrum on avian pathogens; assay type: cell-based; conditions: 100 µM, unpublished data
[14] = tested on: S. Typhimurium in infected Caco-2, HD11, and THP-1 cell lines; experiment: S. Typhimurium survival in infected cell lines, summary over lines; assay type: cell-based, Salmonella enterica subsp. enterica serotype Typhimurium; conditions: over the three cell lines
Procedure: as §1

[15] = tested on: Salmonella Anatum; experiment: Dose-response assay (MBC) on Salmonella serovars; assay type: cell-based; conditions: Salmonella enterica; serovar Anatum, M9 broth
[16] = tested on: Bifidobacterium longum; experiment: Growth of probiotic bacteria at 200 µM; assay type: cell-based; conditions: data not shown
[17] = tested on: Lactobacillus rhamnosus GG; experiment: Growth of probiotic bacteria at 200 µM; assay type: cell-based; conditions: data not shown
[18] = tested on: PhoP regulon in S. Typhimurium; set-up: method as in PubChem bioassay AID #1863, #1981, #2253, and #2401; conditions: ref PubChem bioassay AID #1863, #1981, #2253, and #2401; cited from earlier work
[19] = tested on: Lactobacillus brevis; experiment: Growth of probiotic bacteria at 200 µM; assay type: cell-based; conditions: data not shown

Compound	Cell surface phenotype in SEM [1]	Membrane phenotype, FM4–64 staining [2]	MBC [3]	Reduction of crystal violet uptake [4]	MBC [5]	IC50 [5]	MBC [6]	IC50 [6]	MBC [7]	IC50 [7]	Salmonella OTUs in ceca [8]	MBC [9]	MBC [12]	Effect on Mycoplasma gallisepticum [13]	also measured
CC1CCC(C(C)C)C(OC(=O)Cn2c[n+](CC(=O)OC3CC(C)CCC3C(C)C)c3ccccc32)C1 (stereo not shown) [SM1]	distorted	No signal was detected	100 µM	1.88 fold	6.25 µM	< 3.21 µM	25 µM	12.5 to 25 µM	100 µM	< 50 µM	reduction	100 µM			Effect on Campylobacter jejuni 81–176 [10]: lethal
CCCCCCCCCCCCCCCC[n+]1ccn(CC#N)c1 [SM3]		No signal was detected	50 µM	4.46 fold	50 µM	< 25 µM	50 µM	12.5 to 25 µM	50 µM	25 to 50 µM		50 µM	25 µM	lethal	MBC [11]: 25 µM; Concentration clearing internalized Salmonella [14]: 50 µM; MBC [15]: 25 µM
CCOc1cc(/C=N/N=C(N)N)ccc1OCc1ccc(Cl)cc1 [SM5]	outer membrane vesicles of approximately 100 to 300 nm diameter	a bright red spot was detected within every bacterium	50 µM (≈ 17.3 µg/mL)		25 µM (≈ 8.67 µg/mL)	< 12.5 µM	12.5 µM (≈ 4.34 µg/mL)	6.25 to 12.5 µM	50 µM (≈ 17.3 µg/mL)	< 25 µM	reduction	50 µM (≈ 17.3 µg/mL)	100 µM (≈ 34.7 µg/mL)	lethal	Effect on growth of Bifidobacterium longum [16]: did not affect the growth; Effect on growth of Lactobacillus rhamnosus GG [17]: did not affect the growth; Activity on the PhoP regulon [18]: direct or indirect inhibitor; Effect on growth of Lactobacillus brevis [19]: did not affect the growth; Increase in permeability (crystal violet uptake) ([4]; compared to 1% DMSO-treated cells): 2.32 fold
